According to patent US6914045B2, “Glycopeptide antibiotics” (Wyeth Holdings Corporation, priority 2001, dated 2005):
Converted amounts (≈) assume the structure as drawn. Values belong to the compound of their own block, whether it stands above or below them.

Assays:
Assay in all cases: in vitro antibacterial evaluation, MIC by broth dilution
Assay type in all cases: cell-based
Staphylococcus sp. = settings: broth dilution, 18 hours at 35° C.
Method in brief: (§1)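 MIC = lowest antibiotic concentration preventing visible growth; inoculum 5×10^5 CFU/mL; drug range 64-0.06 μg/mL; Muller-Hinton II […]; NCCLS M7-A2 guidance.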

Escherichia coli = settings: 18 hours at 35° C., strain ATCC 25922
Method in brief: as §1

Streptococcus sp. = settings: broth dilution, 18 hours at 35° C.
Method in brief: as §1

Enterococcus sp. = settings: broth dilution, 18 hours at 35° C.
Method in brief: as §1

[1] = Streptococcus agalactiae (GC 4564)
[2] = Streptococcus pneumoniae (GC 4565)
[3] = Streptococcus pyogenes (ID-3187)
[4] = Enterococcus faecalis (ATCC 29212)
[5] = Enterococcus faecalis (GC 2242)
[6] = Enterococcus faecalis (GC 4552)
[7] = Enterococcus faecalis (GC 4553)
[8] = Enterococcus faecalis (GC 4554)

MIC Coagulase Negative Staphylococcus (GC 4547) (Staphylococcus sp.): 2 µg/mL (≈ 1.4 µM) | MIC Coagulase Negative Staphylococcus (GC 4548) (Staphylococcus sp.): 2 µg/mL (≈ 1.4 µM) | MIC Coagulase Negative Staphylococcus (GC 4549) (Staphylococcus sp.): 1 µg/mL (≈ 0.7 µM) | MIC Coagulase Negative Staphylococcus (GC 4551) (Staphylococcus sp.): 8 µg/mL (≈ 5.6 µM) | MIC Coagulase Negative Staphylococcus (ID-3941) (Staphylococcus sp.): 1 µg/mL (≈ 0.7 µM) | MIC Staphylococcus aureus (ATCC 29213) (Staphylococcus sp.): 4 µg/mL (≈ 2.8 µM) | MIC Staphylococcus aureus (GC 1131) (Staphylococcus sp.): 4 µg/mL (≈ 2.8 µM) | MIC Staphylococcus aureus (GC 4541) (Staphylococcus sp.): 4 µg/mL (≈ 2.8 µM) | MIC Staphylococcus aureus (GC 4542) (Staphylococcus sp.): 8 µg/mL (≈ 5.6 µM) | MIC Staphylococcus aureus (GC 4544) (Staphylococcus sp.): 8 µg/mL (≈ 5.6 µM) | MIC Staphylococcus aureus (GC 4545) (Staphylococcus sp.): 4 µg/mL (≈ 2.8 µM) | MIC Staphylococcus aureus-SMITH (GC 4543) (Staphylococcus sp.): 4 µg/mL (≈ 2.8 µM) | MIC Coagulase Negative Staphylococcus (GC 4547) (Staphylococcus sp.; strain GC 4547): 2 µg/mL (≈ 1.4 µM) | MIC Coagulase Negative Staphylococcus (GC 4548) (Staphylococcus sp.; strain GC 4548): 2 µg/mL (≈ 1.4 µM) | MIC Coagulase Negative Staphylococcus (GC 4549) (Staphylococcus sp.; strain GC 4549): 1 µg/mL (≈ 0.7 µM) | MIC Coagulase Negative Staphylococcus (GC 4551) (Staphylococcus sp.; strain GC 4551): 8 µg/mL (≈ 5.6 µM) | MIC Coagulase Negative Staphylococcus (ID-3941) (Staphylococcus sp.; strain ID-3941): 1 µg/mL (≈ 0.7 µM) | MIC Staphylococcus aureus-SMITH (GC 4543) (Staphylococcus sp.; strain SMITH GC 4543): 4 µg/mL (≈ 2.8 µM) | MIC Staphylococcus aureus (ATCC 29213) (Staphylococcus sp.; strain ATCC 29213): 4 µg/mL (≈ 2.8 µM) | MIC Staphylococcus aureus (GC 1131) (Staphylococcus sp.; strain GC 1131): 4 µg/mL (≈ 2.8 µM) | MIC Staphylococcus aureus (GC 4541) (Staphylococcus sp.; strain GC 4541): 4 µg/mL (≈ 2.8 µM) | MIC Staphylococcus aureus (GC 4542) (Staphylococcus sp.; strain GC 4542): 8 µg/mL (≈ 5.6 µM) | MIC Staphylococcus aureus (GC 4544) (Staphylococcus sp.; strain GC 4544): 8 µg/mL (≈ 5.6 µM) | MIC Staphylococcus aureus (GC 4545) (Staphylococcus sp.; strain GC 4545): 4 µg/mL (≈ 2.8 µM) | MIC Escherichia coli (ATCC 25922) (Escherichia coli): >64 µg/mL | MIC Streptococcus agalactiae (GC 4564) (Streptococcus sp.; [1]): 2 µg/mL (≈ 1.4 µM) | MIC Streptococcus pneumoniae (GC 4565) (Streptococcus sp.; [2]): <0.5 µg/mL | MIC Streptococcus pyogenes (ID-3187) (Streptococcus sp.; [3]): 2 µg/mL (≈ 1.4 µM) | MIC Streptococcus agalactiae (GC 4564) (Streptococcus sp.; strain GC 4564): 2 µg/mL (≈ 1.4 µM) | MIC Streptococcus pneumoniae (GC 4565) (Streptococcus sp.; strain GC 4565): <0.5 µg/mL | MIC Streptococcus pyogenes (ID-3187) (Streptococcus sp.; strain ID-3187): 2 µg/mL (≈ 1.4 µM) | MIC Enterococcus avium (GC 4558) (Enterococcus sp.; Enterococcus avium (GC 4558)): 32 µg/mL (≈ 22.4 µM) | MIC Enterococcus faecalis (ATCC 29212) (Enterococcus sp.; [4]): 32 µg/mL (≈ 22.4 µM) | MIC Enterococcus faecalis (GC 2242) (Enterococcus sp.; [5]): 16 µg/mL (≈ 11.2 µM) | MIC Enterococcus faecalis (GC 4552) (Enterococcus sp.; [6]): 64 µg/mL (≈ 44.8 µM) | MIC Enterococcus faecalis (GC 4553) (Enterococcus sp.; [7]): 32 µg/mL (≈ 22.4 µM) | MIC Enterococcus faecalis (GC 4554) (Enterococcus sp.; [8]): 64 µg/mL (≈ 44.8 µM) | MIC Enterococcus faecium (GC 2243) (Enterococcus sp.; Enterococcus faecium (GC 2243)): 32 µg/mL (≈ 22.4 µM) | MIC Enterococcus faecium (GC 4556) (Enterococcus sp.; Enterococcus faecium (GC 4556)): 32 µg/mL (≈ 22.4 µM) | MIC Enterococcus faecium (GC 4557) (Enterococcus sp.; Enterococcus faecium (GC 4557)): 2 µg/mL (≈ 1.4 µM) | MIC Enterococcus faecalis (ATCC 29212) (Enterococcus sp.; strain ATCC 29212): 32 µg/mL (≈ 22.4 µM) | MIC Enterococcus faecalis (GC 2242) (Enterococcus sp.; strain GC 2242): 16 µg/mL (≈ 11.2 µM) | MIC Enterococcus faecium (GC 2243) (Enterococcus sp.; strain GC 2243): 32 µg/mL (≈ 22.4 µM) | MIC Enterococcus faecalis (GC 4552) (Enterococcus sp.; strain GC 4552): 64 µg/mL (≈ 44.8 µM) | MIC Enterococcus faecalis (GC 4553) (Enterococcus sp.; strain GC 4553): 32 µg/mL (≈ 22.4 µM) | MIC Enterococcus faecalis (GC 4554) (Enterococcus sp.; strain GC 4554): 64 µg/mL (≈ 44.8 µM) | MIC Enterococcus faecium (GC 4556) (Enterococcus sp.; strain GC 4556): 32 µg/mL (≈ 22.4 µM) | MIC Enterococcus faecium (GC 4557) (Enterococcus sp.; strain GC 4557): 2 µg/mL (≈ 1.4 µM) | MIC Enterococcus avium (GC 4558) (Enterococcus sp.; strain GC 4558): 32 µg/mL (≈ 22.4 µM)
SMILES: CC(c1ccccc1)C1NC(=O)CNC(=O)C(CO)NC(=O)C(C(O)C2CNC(=N)N2C2OC(CO)C(O)C(O)C2O)NC(=O)C(C(O)C2CNC(=N)N2)NC(=O)C(Cc2ccc(OC3OC(COC(=O)OCc4ccccc4)C(OC4OC(CO)C(O)C(O)C4O)C(O)C3O)cc2)NC1=O (stereo not drawn) [Example 101, Cyclo[glycyl-β-methylphenylalanyl-O-[4-O-hexopyranosyl-6-O-[(phenylmethoxy)carbonyl]-hexopyranosyl]tyrosyl-3-(2-iminoimidazolidin-4-yl)seryl-3-(3-hexopyranosyl-2-iminoimidazolidin-4-yl)serylseryl]]
MIC Staphylococcus haemolyticus (GC 4546) (Staphylococcus sp.): 4 µg/mL (≈ 2.8 µM) | MIC Staphylococcus haemolyticus (GC 4546) (Staphylococcus sp.; strain GC 4546): 4 µg/mL (≈ 2.8 µM)

MIC Coagulase Negative Staphylococcus (GC 4547) (Staphylococcus sp.): 1 µg/mL (≈ 0.7 µM) | MIC Coagulase Negative Staphylococcus (GC 4548) (Staphylococcus sp.): 1 µg/mL (≈ 0.7 µM) | MIC Coagulase Negative Staphylococcus (GC 4549) (Staphylococcus sp.): 1 µg/mL (≈ 0.7 µM) | MIC Coagulase Negative Staphylococcus (GC 4551) (Staphylococcus sp.): 2 µg/mL (≈ 1.4 µM) | MIC Coagulase Negative Staphylococcus (ID-3941) (Staphylococcus sp.): 1 µg/mL (≈ 0.7 µM) | MIC Staphylococcus aureus (ATCC 29213) (Staphylococcus sp.): 2 µg/mL (≈ 1.4 µM) | MIC Staphylococcus aureus (GC 1131) (Staphylococcus sp.): 4 µg/mL (≈ 2.8 µM) | MIC Staphylococcus aureus (GC 4541) (Staphylococcus sp.): 2 µg/mL (≈ 1.4 µM) | MIC Staphylococcus aureus (GC 4542) (Staphylococcus sp.): 4 µg/mL (≈ 2.8 µM) | MIC Staphylococcus aureus (GC 4544) (Staphylococcus sp.): 4 µg/mL (≈ 2.8 µM) | MIC Staphylococcus aureus (GC 4545) (Staphylococcus sp.): 4 µg/mL (≈ 2.8 µM) | MIC Staphylococcus aureus-SMITH (GC 4543) (Staphylococcus sp.): 8 µg/mL (≈ 5.6 µM) | MIC Coagulase Negative Staphylococcus (GC 4547) (Staphylococcus sp.; strain GC 4547): 1 µg/mL (≈ 0.7 µM) | MIC Coagulase Negative Staphylococcus (GC 4548) (Staphylococcus sp.; strain GC 4548): 1 µg/mL (≈ 0.7 µM) | MIC Coagulase Negative Staphylococcus (GC 4549) (Staphylococcus sp.; strain GC 4549): 1 µg/mL (≈ 0.7 µM) | MIC Coagulase Negative Staphylococcus (GC 4551) (Staphylococcus sp.; strain GC 4551): 2 µg/mL (≈ 1.4 µM) | MIC Coagulase Negative Staphylococcus (ID-3941) (Staphylococcus sp.; strain ID-3941): 1 µg/mL (≈ 0.7 µM) | MIC Staphylococcus aureus-SMITH (GC 4543) (Staphylococcus sp.; strain SMITH GC 4543): 8 µg/mL (≈ 5.6 µM) | MIC Staphylococcus aureus (ATCC 29213) (Staphylococcus sp.; strain ATCC 29213): 2 µg/mL (≈ 1.4 µM) | MIC Staphylococcus aureus (GC 1131) (Staphylococcus sp.; strain GC 1131): 4 µg/mL (≈ 2.8 µM) | MIC Staphylococcus aureus (GC 4541) (Staphylococcus sp.; strain GC 4541): 2 µg/mL (≈ 1.4 µM) | MIC Staphylococcus aureus (GC 4542) (Staphylococcus sp.; strain GC 4542): 4 µg/mL (≈ 2.8 µM) | MIC Staphylococcus aureus (GC 4544) (Staphylococcus sp.; strain GC 4544): 4 µg/mL (≈ 2.8 µM) | MIC Staphylococcus aureus (GC 4545) (Staphylococcus sp.; strain GC 4545): 4 µg/mL (≈ 2.8 µM) | MIC Escherichia coli (ATCC 25922) (Escherichia coli): 64 µg/mL (≈ 44.8 µM) | MIC Streptococcus agalactiae (GC 4564) (Streptococcus sp.; [1]): 1 µg/mL (≈ 0.7 µM) | MIC Streptococcus pneumoniae (GC 4565) (Streptococcus sp.; [2]): <0.5 µg/mL | MIC Streptococcus pyogenes (ID-3187) (Streptococcus sp.; [3]): 1 µg/mL (≈ 0.7 µM) | MIC Streptococcus agalactiae (GC 4564) (Streptococcus sp.; strain GC 4564): 1 µg/mL (≈ 0.7 µM) | MIC Streptococcus pneumoniae (GC 4565) (Streptococcus sp.; strain GC 4565): <0.5 µg/mL | MIC Streptococcus pyogenes (ID-3187) (Streptococcus sp.; strain ID-3187): 1 µg/mL (≈ 0.7 µM) | MIC Enterococcus avium (GC 4558) (Enterococcus sp.; Enterococcus avium (GC 4558)): 16 µg/mL (≈ 11.2 µM) | MIC Enterococcus faecalis (ATCC 29212) (Enterococcus sp.; [4]): 16 µg/mL (≈ 11.2 µM) | MIC Enterococcus faecalis (GC 2242) (Enterococcus sp.; [5]): 8 µg/mL (≈ 5.6 µM) | MIC Enterococcus faecalis (GC 4552) (Enterococcus sp.; [6]): 16 µg/mL (≈ 11.2 µM) | MIC Enterococcus faecalis (GC 4553) (Enterococcus sp.; [7]): 16 µg/mL (≈ 11.2 µM) | MIC Enterococcus faecalis (GC 4554) (Enterococcus sp.; [8]): 16 µg/mL (≈ 11.2 µM) | MIC Enterococcus faecium (GC 2243) (Enterococcus sp.; Enterococcus faecium (GC 2243)): 16 µg/mL (≈ 11.2 µM) | MIC Enterococcus faecium (GC 4556) (Enterococcus sp.; Enterococcus faecium (GC 4556)): 16 µg/mL (≈ 11.2 µM) | MIC Enterococcus faecium (GC 4557) (Enterococcus sp.; Enterococcus faecium (GC 4557)): 2 µg/mL (≈ 1.4 µM) | MIC Enterococcus faecalis (ATCC 29212) (Enterococcus sp.; strain ATCC 29212): 16 µg/mL (≈ 11.2 µM) | MIC Enterococcus faecalis (GC 2242) (Enterococcus sp.; strain GC 2242): 8 µg/mL (≈ 5.6 µM) | MIC Enterococcus faecium (GC 2243) (Enterococcus sp.; strain GC 2243): 16 µg/mL (≈ 11.2 µM) | MIC Enterococcus faecalis (GC 4552) (Enterococcus sp.; strain GC 4552): 16 µg/mL (≈ 11.2 µM) | MIC Enterococcus faecalis (GC 4553) (Enterococcus sp.; strain GC 4553): 16 µg/mL (≈ 11.2 µM) | MIC Enterococcus faecalis (GC 4554) (Enterococcus sp.; strain GC 4554): 16 µg/mL (≈ 11.2 µM) | MIC Enterococcus faecium (GC 4556) (Enterococcus sp.; strain GC 4556): 16 µg/mL (≈ 11.2 µM) | MIC Enterococcus faecium (GC 4557) (Enterococcus sp.; strain GC 4557): 2 µg/mL (≈ 1.4 µM) | MIC Enterococcus avium (GC 4558) (Enterococcus sp.; strain GC 4558): 16 µg/mL (≈ 11.2 µM)
SMILES: CC(c1ccccc1)C1NC(=O)CNC(=O)C(CO)NC(=O)C(C(O)C2CNC(=N)N2C2OC(CO)C(O)C(O)C2O)NC(=O)C(C(O)C2CNC(=N)N2)NC(=O)C(Cc2ccc(OC3OC(CO)C(OC4OC(COC(=O)OCc5ccccc5)C(O)C(O)C4O)C(O)C3O)cc2)NC1=O (stereo not drawn) [Example 101a]
MIC Staphylococcus haemolyticus (GC 4546) (Staphylococcus sp.): 1 µg/mL (≈ 0.7 µM) | MIC Staphylococcus haemolyticus (GC 4546) (Staphylococcus sp.; strain GC 4546): 1 µg/mL (≈ 0.7 µM)
